Patent US9328083B2, “2-aminated methylene or 2-esterified methylene tanshinone derivatives, and preparation method and application thereof” (HANGZHOU BENSHENG PHARMACEUTICAL CO., LTD., priority 2011, dated 2016)
In brackets after ≈: the same amount, converted by molar mass.

Assays:
[1] = test system: CNE (nasopharyngeal carcinoma cell); assay: MTT growth inhibition of human solid tumor cells, 72 h; assay type: cell-based; details: Homo sapiens; for IC50: read-out: IC50; for IC90: read-out: IC90
Experimental: (§1) Hep-2 (laryngeal carcinoma), A549 (human lung cancer), CaES-17 (esophageal cancer cell), PC-3 (prostate cancer), CNE (nasopharyngeal carcinoma cell), and SK-OV-3 (ovarian cancer cell), all of which are purchased from China Center For Type Culture Collection; RKO (human colon adenocarcinoma cell), MGC 803 (human gastric cancer cell), MG63 (osteosarcoma) and U87 MG (malignant glioma cell), all of which are purchased from Fuxiang Bio-tech Co. Ltd., Shanghai, China; PANC-1 (pancreatic cancer), Hep G2 (human liver cancer cell), Becap37 (human breast cancer cell) and Hela (human cervical cancer cell), all of which are donated by Cancer Research Institute of Zhejiang University, China.
(§2) The standard sample of tanshinone I (TA) and the 2-aminated methylene or 2-esterified methylene tanshinone I derivatives of the present invention are sufficiently dissolved with dimethylsulfoxide to produce a stock solution of 10 mg/mL, which is refrigerated at 4° C. and stored in dark, and is diluted with a cell culture medium to the desired concentration prior to experimentation.
(§3) Obtaining 4000 well-growing human solid tumor cells and inoculating them into wells of a 96-well cell culture plate. The culture medium is DMEM High Glucose cell culture medium containing 10% fetal bovine serum. The plate is placed in a carbon dioxide cell incubator (5% CO2) at 37° C. and incubated for 24 hours. After adding the 2-aminated methylene or 2-esterified methylene tanshinone I derivatives of different concentrations and mixing uniformly, the plate is placed in a carbon dioxide cell incubator (5% CO2) at 37° C. and incubated for 72 hours. Then the viable cell concentration is determined by the MTT method.

[2] = test system: Becap37 (human breast cancer cell); assay: as above; assay type: cell-based; details: Homo sapiens, Becap-37, 72 h; for IC50: read-out: IC50; for IC90: read-out: IC90
Experimental: as §1, §2, §3

A549 (human lung cancer) = assay: as above; assay type: cell-based; details: Homo sapiens, A549, 72 h; for IC50: read-out: IC50; for IC90: read-out: IC90
Experimental: as §1, §2, §3

[3] = test system: MGC 803 (human gastric cancer cell); assay: as above; assay type: cell-based; details: Homo sapiens, MGC-803, 72 h; for IC50: read-out: IC50; for IC90: read-out: IC90
Experimental: as §1, §2, §3

[4] = test system: PANC-1 (pancreatic cancer); assay: as above; assay type: cell-based; details: Homo sapiens, PANC-1, 72 h; for IC50: read-out: IC50; for IC90: read-out: IC90
Experimental: as §1, §2, §3

MG63 (osteosarcoma) = assay: as above; assay type: cell-based; details: Homo sapiens, MG-63, 72 h; for IC50: read-out: IC50; for IC90: read-out: IC90
Experimental: as §1, §2, §3

[5] = test system: Hep G2 (human liver cancer cell); assay: as above; assay type: cell-based; details: Homo sapiens, HepG2, Hep G2, 72 h; for IC50: read-out: IC50; for IC90: read-out: IC90
Experimental: as §1, §2, §3

[6] = test system: U87 MG (malignant glioma cell); assay: as above; assay type: cell-based; details: Homo sapiens, U-87 MG, U87-MG, 72 h; for IC50: read-out: IC50; for IC90: read-out: IC90
Experimental: as §1, §2, §3

[7] = test system: CaES-17 (esophageal cancer cell); assay: as above; assay type: cell-based; details: Homo sapiens, CaEs17, CaEs-17, 72 h; for IC50: read-out: IC50; for IC90: read-out: IC90
Experimental: as §1, §2, §3

[8] = test system: Hep-2 (laryngeal carcinoma); assay: as above; assay type: cell-based; details: Homo sapiens, HEp-2, 72 h; for IC50: read-out: IC50; for IC90: read-out: IC90
Experimental: as §1, §2, §3

[9] = test system: SK-OV-3 (ovarian cancer cell); assay: as above; assay type: cell-based; details: Homo sapiens, SK-OV-3, 72 h; for IC50: read-out: IC50; for IC90: read-out: IC90
Experimental: as §1, §2, §3

[10] = test system: RKO (human colon adenocarcinoma cell); assay: as above; assay type: cell-based; details: Homo sapiens; for IC50: read-out: IC50; for IC90: read-out: IC90
Experimental: as §1, §2, §3

[11] = test system: Hela (human cervical cancer cell); assay: as above; assay type: cell-based; details: Homo sapiens, HeLa, 72 h; for IC50: read-out: IC50; for IC90: read-out: IC90
Experimental: as §1, §2, §3

PC-3 (prostate cancer) = assay: as above; assay type: cell-based; details: Homo sapiens, PC-3, 72 h; for IC50: read-out: IC50; for IC90: read-out: IC90
Experimental: as §1, §2, §3

[12] = test system: NB4 (acute promyelocytic leukemia, AML); assay: MTT growth inhibition of leukemia cells, 72 h; assay type: cell-based, human; details: Homo sapiens, NB4, 72 h; for IC50: read-out: IC50; for IC90: read-out: IC90
Excerpt: (§4) Leukemia cell lines: leukemia cell lines: K562/adr (drug-resistant, chronic myeloid leukemia, CML), NB4 (acute promyelocytic leukemia, AML), Kasumi-1 (acute myeloid leukemia M2 type, AML-M2), and Jurkat (acute lymphoblastic leukemia, ALL), all of which are donated by Cancer Research Institute of Zhejiang University, China; and H9 (acute lymphoblastic leukemia, ALL), which is purchased from China Center for Type Culture Collection (CCTCC).
as §2
(§5) Obtaining 6000 well-growing leukemia cells and inoculating them into wells of a 96-well cell culture plate. The culture medium is the RPMI-1640 cell culture medium containing 10% fetal bovine serum. After adding on the second day the 2-aminated methylene or 2-esterified methylene tanshinone I derivatives of different concentrations and mixing uniformly, placing the plate in a carbon dioxide cell incubator (5% CO2) at 37° C. and incubated for 72 hours. Then the viable cell concentration is determined by MTT method.

[13] = test system: Jurkat (acute lymphoblastic leukemia, ALL); assay: MTT growth inhibition of leukemia cells, 72 h; assay type: cell-based, human; details: Homo sapiens, 72 h; for IC50: read-out: IC50; for IC90: read-out: IC90
Excerpt: as §4, §2, §5

[14] = test system: H9 (acute lymphoblastic leukemia, ALL); assay: MTT growth inhibition of leukemia cells, 72 h; assay type: cell-based, human; details: Homo sapiens, H9, 72 h; for IC50: read-out: IC50; for IC90: read-out: IC90
Excerpt: as §4, §2, §5

[15] = test system: K562/adr (drug-resistant, chronic myeloid leukemia, CML); assay: MTT growth inhibition of leukemia cells, 72 h; assay type: cell-based, human; details: Homo sapiens, K562/Adr; for IC50: read-out: IC50; for IC90: read-out: IC90
Excerpt: as §4, §2, §5

[16] = test system: Kasumi-1 (acute myeloid leukemia M2 type, AML-M2); assay: MTT growth inhibition of leukemia cells, 72 h; assay type: cell-based, human; details: Homo sapiens, Kasumi-1, 72 h; for IC50: read-out: IC50; for IC90: read-out: IC90
Excerpt: as §4, §2, §5

[17] = test system: RPMI8226 (multiple myeloma); assay: MTT growth inhibition of multiple myeloma cells, 72 h; assay type: cell-based, human; details: Homo sapiens, RPMI 8226, 72 h; for IC50: read-out: IC50; for IC90: read-out: IC90
Experimental: Myeloma cell lines: RPMI8226 (multiple myeloma), purchased from Fuxiang Bio-tech Co. Ltd., Shanghai, China.
as §2
Obtaining 6000 well-growing myeloma cells as above and inoculating them into wells of a 96-well cell culture plate. The culture medium is the 1640 cell culture medium containing 10% fetal bovine serum. After adding the 2-aminated methylene or 2-esterified methylene tanshinone I derivatives of different concentrations and mixing uniformly, placing the plate in a carbon dioxide cell incubator (5% CO2) at 37° C. and incubated for 72 hours. Then the viable cell concentration is determined by MTT method.

IC50 [1] [µg/mL]	IC90 [1] [µg/mL]	IC50 [2] [µg/mL]	IC90 [2] [µg/mL]	IC50 (A549 (human lung cancer)) [µg/mL]	IC90 (A549 (human lung cancer)) [µg/mL]	IC50 [3] [µg/mL]	IC90 [3] [µg/mL]	IC50 [4] [µg/mL]	IC90 [4] [µg/mL]	IC50 (MG63 (osteosarcoma)) [µg/mL]	IC90 (MG63 (osteosarcoma)) [µg/mL]	IC50 [5] [µg/mL]	IC90 [5] [µg/mL]	IC50 [6] [µg/mL]	IC90 [6] [µg/mL]	IC50 [7] [µg/mL]	IC90 [7] [µg/mL]	IC50 [8] [µg/mL]	IC90 [8] [µg/mL]	further results	SMILES
3.87	> 16	8.1	> 16	8.9	> 16	8.91	> 16	4.24	> 16	1.67	> 16	> 16	> 16	4.67	> 16	8.45	> 16	13.7	> 16	IC50 [9]: > 16 µg/mL; IC90 [9]: > 16 µg/mL; IC50 [10]: 2.5 µg/mL; IC90 [10]: > 16 µg/mL; IC50 [11]: 7.78 µg/mL; IC90 [11]: > 16 µg/mL; IC50 (PC-3 (prostate cancer)): 10.7 µg/mL; IC90 (PC-3 (prostate cancer)): > 16 µg/mL; IC50 [12]: 0.99 µg/mL; IC90 [12]: 7 µg/mL; IC50 [13]: 4.79 µg/mL; IC90 [13]: > 16 µg/mL; IC50 [14]: 6.25 µg/mL; IC90 [14]: 15.9 µg/mL; IC50 [15]: 11.2 µg/mL; IC90 [15]: > 16 µg/mL; IC50 [16]: 5.03 µg/mL; IC90 [16]: > 16 µg/mL; IC50 [17]: 3.86 µg/mL; IC90 [17]: 16 µg/mL	CC[N+](C)(Cc1ccc(F)c(Cl)c1)Cc1oc2c(c1C)C(=O)C(=O)c1c-2ccc2c(C)cccc12 (stereo not drawn) [BS-TA-50]
3.2	7.2	1.88	3.67	3.78	9.78	2.9	5.4	1.74	3.58	1.24	5.23	2.5	5.97	0.36	18.8	3.58	7.74	1.79	7.41	IC50 [9]: 9.78 µg/mL; IC90 [9]: 22.7 µg/mL; IC50 [10]: 0.52 µg/mL; IC90 [10]: 1.88 µg/mL; IC50 [11]: 3.32 µg/mL; IC90 [11]: 7.35 µg/mL; IC50 (PC-3 (prostate cancer)): 5.03 µg/mL; IC90 (PC-3 (prostate cancer)): 10.8 µg/mL; IC50 [12]: 0.9 µg/mL; IC90 [12]: 2.98 µg/mL; IC50 [13]: 1.28 µg/mL; IC90 [13]: 3.99 µg/mL; IC50 [14]: 1.4 µg/mL; IC90 [14]: 4 µg/mL; IC50 [15]: 1.36 µg/mL; IC90 [15]: 5.12 µg/mL; IC50 [16]: 1.61 µg/mL; IC90 [16]: 3.86 µg/mL; IC50 [17]: 2 µg/mL; IC90 [17]: 7.64 µg/mL	Cc1c(C[N+](C)(CCO)Cc2ccc(F)c(Cl)c2)oc2c1C(=O)C(=O)c1c-2ccc2c(C)cccc12 (stereo not drawn) [BS-TA-60]
2.8 (≈ 6.91 µM)	7.2 (≈ 17.8 µM)	2.54 (≈ 6.26 µM)	4.92 (≈ 12.1 µM)	2.76 (≈ 6.81 µM)	6.41 (≈ 15.8 µM)	2.47 (≈ 6.09 µM)	8.33 (≈ 20.5 µM)	0.74 (≈ 1.83 µM)	4.95 (≈ 12.2 µM)	2.34 (≈ 5.77 µM)	6.79 (≈ 16.7 µM)	2.95 (≈ 7.28 µM)	9.75 (≈ 24 µM)	2.59 (≈ 6.39 µM)	3.87 (≈ 9.54 µM)	3 (≈ 7.4 µM)	5.07 (≈ 12.5 µM)	0.84 (≈ 2.07 µM)	2.52 (≈ 6.22 µM)	IC50 [9]: 5.83 µg/mL (≈ 14.4 µM); IC90 [9]: 9.47 µg/mL (≈ 23.4 µM); IC50 [10]: 0.46 µg/mL (≈ 1.13 µM); IC90 [10]: 6.98 µg/mL (≈ 17.2 µM); IC50 [11]: 1.49 µg/mL (≈ 3.67 µM); IC90 [11]: 4 µg/mL (≈ 9.87 µM); IC50 (PC-3 (prostate cancer)): 2.65 µg/mL (≈ 6.54 µM); IC90 (PC-3 (prostate cancer)): 6.49 µg/mL (≈ 16 µM); IC50 [12]: 0.73 µg/mL (≈ 1.8 µM); IC90 [12]: 1.9 µg/mL (≈ 4.69 µM); IC50 [13]: 0.56 µg/mL (≈ 1.38 µM); IC90 [13]: 0.99 µg/mL (≈ 2.44 µM); IC50 [14]: 0.57 µg/mL (≈ 1.41 µM); IC90 [14]: 0.9 µg/mL (≈ 2.22 µM); IC50 [15]: 0.61 µg/mL (≈ 1.5 µM); IC90 [15]: 1.61 µg/mL (≈ 3.97 µM); IC50 [16]: 0.31 µg/mL (≈ 0.765 µM); IC90 [16]: 1.28 µg/mL (≈ 3.16 µM); IC50 [17]: 1.82 µg/mL (≈ 4.49 µM); IC90 [17]: 3.92 µg/mL (≈ 9.67 µM)	CC(=O)OCCN(C)Cc1oc2c(c1C)C(=O)C(=O)c1c-2ccc2c(C)cccc12 [BS-TA-61]
